US20240123076A1, “UNSATURATED DENDRIMERS COMPOSITIONS, RELATED FORMULATIONS, AND METHODS OF USE THEREOF” (The Board of Regents of The University of Texas System, priority 2021, published 2024)
Entries after “also recorded” stand apart in the source; their conditions may differ.

How the values were obtained:
IGROV-1 cells = experiment: In vitro luciferase expression of Luc mRNA LNPs; format: cell-based; details: IGROV-I cells, 25 ng mRNA per well, 24 h; lipid:DOPE:cholesterol:DMG-PEG2k 15:15:30:3
Protocol: Ionizable lipid, DOPE, cholesterol, DMG-PEG2k were dissolved in ethanol as noted below (S2, base formulation). Firefly Luciferase (Luc) mRNA was diluted in 10 mM citric acid-sodium citrate buffer (pH 4.4). The lipid mixture and nucleic acid solution were rapidly combined at a volumetric ratio of 3:1 nucleic acid:lipid mix. Afterwards, the LNP formulations were diluted with 1×PBS to 1 ng/uL concentration.
IGROV-1 cells were seeded into white 96-well plates at a density of 1×10^4 cells per well the day before transfection with media. Day of transfection, the media was replaced with 200 μL of fresh media. Then, 25 μL of the Luc mRNA formulations were added with a fixed dose of 25 ng mRNA per well. After incubation for another 24 hours, ONE-Glo+ Tox kits (Promega) were used to detect Luc mRNA expression and cytotoxicity.

C57BL/6 mice [1] = experiment: In vivo luciferase mRNA delivery (bioluminescence imaging, liver); details: 4-component LNP, tail vein, 0.25 mg/kg Luc mRNA, 6 h
Protocol: Ionizable lipid(s), DOPE, cholesterol, DMG-PEG2k were dissolved in ethanol as noted below in S2, and the Luc mRNA was diluted in 10 mM citric acid-sodium citrate buffer (pH 4.4) at the desired dosage. The lipid mixture and nucleic acid dilution were rapidly combined at a volumetric ratio of 3:1 nucleic acid:lipid mix. The nanoparticles were dialyzed against 1×PBS in Pur-A-Lyzer midi dialysis chambers (Sigma-Aldrich, WMCO 3.5 kDa) for 2 hours prior to injection.
All experiments were approved by the Institutional Animal Care & Use Committee (IACUC) of The University of Texas Southwestern Medical Center and were consistent with local, state and federal regulations as applicable. Female C57BL/6 mice (18-20 g) were injected with LNP formulations via tail vein injection (5 ug of mRNA, 0.25 mg/kg). After 6 h, the luciferase expression was evaluated by live animal bioluminescence imaging. Animals were anesthetized under isofluorane, and D-Luciferin (150 mg/kg) was introduced by intraperitoneal injection. Then, the luciferase activity was imaged, and ex vivo imaging was performed on systemic organs after resection on an IVIS Lumina system (Perkin Elmer). The images were processed using Living Image analysis software (Perkin Elmer).

[2] = Lipid fusion assay (FRET); details: PBS pH 5.5, 37° C., 5 min
Protocol: Endosome mimicking anionic liposomes were prepared by mixing DOPS:DOPC:DOPE:NBD-PE:N-Rh-PE (25:25:48:1:1 molar ratio) in CHCl3 at a fixed total lipid concentration of 1 mM. Afterwards, the film was created by rotary evaporation of the solution, followed by 2 h of vacuum drying to produce a thin lipid film.
LNPs were formulated with the in vivo method. 100 uL PBS (pH 5.5) was added to each well in a black 96-well plate (n=3 per sample), and 1 μL of endosome mimicking anionic liposomes (1 mM) was added to each well. Endosome mimicking anionic liposomes in PBS served as the negative control (Fmin), and the endosome mimic lipids incubated with 2% Triton-X in PBS solutions were set as positive control (Fmax). 10 μL of LNPs being tested were added to the wells (n=3). After incubating at 37° C. for 5 min., fluorescence measurements (F) were conducted on a microplate reader at Ex/Em=465/520 nm. The lipid fusion (%) was calculated as (F−Fmin)/(Fmax−Fmin)*100%.
Fluorescence resonance energy transfer (FRET)-based assay was employed to determine the LNP's ability to disrupt and fuse with the endosomal membrane (FIG. 4). DOPE-conjugated FRET probes (NBD-PE and N—Rh-PE) were formulated into endosome-mimicking nanoparticles. NBD is normally quenched by the rhodamine, but the NBD signal would rise if disruption of the membrane occurred. […]

IGROVI cells = experiment: Cellular uptake and intracellular trafficking of Cy5-labeled mRNA LNPs (confocal imaging); format: cell-based; details: for co-localization of Cy5 mRNA with lysosomes: 4 h and 24 h after incubation; for cellular uptake (internalization) of Cy5 Luc mRNA LNPs: at 4 hours and 24 hours
Protocol: Flash chromatography was performed on a Teledyne Isco CombiFlash Rf-200i chromatography system equipped with UV-Vis and evaporative light scattering detectors (ELSD) or manually using 60 Å, 40-63 um Silica (Sorbtech) or activated, neutral Aluminum Oxide (Sigma-Aldrich). Particle sizes and PDI were measured by Dynamic Light Scattering (DLS) using a Malvern Zetasizer Nano ZS (He-Ne laser, λ=632 nm). Confocal microscopy was conducted using a Zeiss LSM-710 laser scanning confocal microscope and data analyzed with the Zeiss LSM-710 software.
Cellular uptake and intracellular trafficking was further examined, in vitro experiments were performed using Cy5-labeled mRNA LNPs. […] The progression of Cy5 mRNA was further tracked from the cell membrane to endosomes to lysosomes and quantified co-localization of Cy5 mRNA with lysosomes. […] The overall results connected chemical structure to factors including cellular uptake, endosomal escape, and intracellular trafficking.

C57BL/6 mice [3] = experiment: Biodistribution of Cy5 Luc mRNA LNPs (ex vivo imaging); format: in vivo; details: IV, 0.25 mg/kg, 6 hours, ex vivo organs

C/C=C/CCCSC(C)C(=O)OCCOC(=O)CCN(CCCN(C)CCCN(CCC(=O)OCCOC(=O)C(C)SCCC/C=C/C)CCC(=O)OCCOC(=O)C(C)SCCC/C=C/C)CCC(=O)OCCOC(=O)C(C)SCCC/C=C/C (centres unmarked) [4A3-4T]
Luc mRNA expression (in vitro Luc mRNA delivery) (IGROV-1 cells): most potent

CC(C)=CCCC(C)CCSC(C)C(=O)OCCOC(=O)CCN(CCCN(C)CCCN(CCC(=O)OCCOC(=O)C(C)SCCC(C)CCC=C(C)C)CCC(=O)OCCOC(=O)C(C)SCCC(C)CCC=C(C)C)CCC(=O)OCCOC(=O)C(C)SCCC(C)CCC=C(C)C (centres unmarked) [4A3-Cit]
Luc mRNA expression in vivo (mRNA delivery) (C57BL/6 mice [1]; 0.25 mg/kg): performed better than 4A3-Ne; also recorded: highest efficacy
lipid fusion with the model endosomal membrane [2]: efficacious; also recorded: highest lipid fusion ability
co-localization of Cy5 mRNA with lysosomes (IGROVI cells): reduced colocalization with lysosomes
cellular uptake (internalization) of Cy5 Luc mRNA LNPs (IGROVI cells): effectively internalized
speed of internalization of Cy5 Luc mRNA LNPs (IGROVI cells; at 4 hours, versus saturated 4A3-SC8 LNPs): internalizing slightly faster
biodistribution of Cy5 Luc mRNA (ROI values) (C57BL/6 mice [3]): no statistical difference; also recorded: did not change the biodistribution

CCCCCCCCSC(C)C(=O)OCCOC(=O)CCN(CCCN(C)CCCN(CCC(=O)OCCOC(=O)C(C)SCCCCCCCC)CCC(=O)OCCOC(=O)C(C)SCCCCCCCC)CCC(=O)OCCOC(=O)C(C)SCCCCCCCC (centres unmarked) [4A3-SC8, reference compound]
co-localization of Cy5 mRNA with lysosomes (IGROVI cells): reduced colocalization with lysosomes
cellular uptake (internalization) of Cy5 Luc mRNA LNPs (IGROVI cells): effectively internalized
biodistribution of Cy5 Luc mRNA (ROI values) (C57BL/6 mice [3]): no statistical difference

CC/C=C\C/C=C\CSC(C)C(=O)OCCOC(=O)CCN(CCCN(C)CCCN(CCC(=O)OCCOC(=O)C(C)SC/C=C\C/C=C\CC)CCC(=O)OCCOC(=O)C(C)SC/C=C\C/C=C\CC)CCC(=O)OCCOC(=O)C(C)SC/C=C\C/C=C\CC (centres unmarked) [4A3-8/2]
Luc mRNA expression in vivo (mRNA delivery) (C57BL/6 mice [1]): lower Luc expression compared to its alkyl partner
